{"source": "patent US20220152015A1", "about": "“NEDOCROMIL SODIUM TO PREVENT, LIMIT ONSET, AND /OR TREAT PANCREATIC CANCER” (priority 2020, published 2022)", "key": {"Panc-02 tumor cells": {"test_system": "Panc-02 tumor cells", "assay": "Panc-02 tumor growth in mice", "type": "in vivo", "conditions": "treated mice vs. saline control at day 21 after treatment, P<0.001", "excerpt": "To determine whether targeting mast cell function has a therapeutic effect in PDAC, we injected tumor-bearing C57BL/6 mice Nedocromil sodium, a mast cell stabilizer. […] […] […] Similarly, mast cell degranulation in the tumor microenvironment was inhibited in the nedocromil sodium-treated group compared with in the saline-treated control group."}, "human GPR35": {"molecular_target": "T1, human GPR35 (Homo sapiens, UniProt Q9HC97)", "T1 construct": "expressed in transfected cells; host or cells: CHO-K1", "T1 sequence (Q9HC97 whole entry)": "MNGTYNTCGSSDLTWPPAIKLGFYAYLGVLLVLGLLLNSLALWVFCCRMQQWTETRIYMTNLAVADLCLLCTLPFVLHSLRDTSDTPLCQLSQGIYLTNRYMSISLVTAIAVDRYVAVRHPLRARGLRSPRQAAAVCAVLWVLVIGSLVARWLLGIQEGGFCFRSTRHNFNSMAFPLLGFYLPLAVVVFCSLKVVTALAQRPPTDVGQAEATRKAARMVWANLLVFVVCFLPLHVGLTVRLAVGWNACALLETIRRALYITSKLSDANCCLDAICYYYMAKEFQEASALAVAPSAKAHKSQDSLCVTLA", "assay": "PathHunter human GPR35a-β-arrestin-2 interaction assay in CHO-K1 cells", "type": "cell-based"}, "cancerous tumor": {"test_system": "cancerous tumor", "assay": "Dog tumor case, topical application", "type": "in vivo", "method": "Summary—A female dog was given the diagnosis of a cancerous tumor (without confirmatory histology due to lack of ability to aspirate the tumor due to the hardness of the mass) in June of 2020. At the time of diagnosis the tumor located on […] right shoulder was measured at 2 inches by 2 inches with a depth of 0.5 inches. Other than supportive care (ketogenic diet to delay tumor progression, and gabapentin for neuropathic pain) no treatment was provided by the owners, as the cost and lack of clear benefit to conventional therapy (biopsy, chemotherapy, and eventual resection) was not deemed to be appropriate for this dog. […] On December 23rd, 2020 the first application of Nedocromil sodium compound was administered to the dog via the topical route. The dog's tumor area was shaved to improve the absorption of the compound into the skin. On Jul. 16, 2021 (tumor size of 1.5×1×0.5 inches), a second application of Nedocromil Sodium was applied using the same dosing strategy in attempt to eradicate the tumor entirely."}, "[1]": {"test_system": "ion channels present in the intestinal cell line HT29", "assay": "Whole-cell patch-clamp recordings of ion channels", "type": "cell-based", "conditions": "HT29 cells", "excerpt": "Summary—Whole-cell patch-clamp recordings were used to test the effects of The Compound on ion channels."}, "[2]": {"test_system": "stage 4 transit metastatic melanoma", "assay": "Transit metastasis melanoma case study, topical application", "method": "Person with stage 4 transit metastatic melanoma with 30 melanomas on the body. Using chemotherapy infusions every 3 weeks since 2019. For 2 weeks used topical Nedocromil sodium with one dose per tumor (30) per week. […] In modern medicine the goal is to shrink a tumor, but the tumor never resolves. […] The patient was treated with Nedocromil Sodium on all 30 tumors in one sitting."}, "K-ras^G12Dp53^−/− tumors": {"test_system": "K-ras^G12Dp53^−/− tumors", "assay": "Surgically implanted PDAC tumors in tumor-bearing C57BL/6 mice", "type": "in vivo", "method": "To determine whether targeting mast cell function has a therapeutic effect in PDAC, we injected tumor-bearing C57BL/6 mice Nedocromil sodium, a mast cell stabilizer. […] Tumor measurement was performed at the end time point (day 50) after treatment. […] Similarly, mast cell degranulation in the tumor microenvironment was inhibited in the nedocromil sodium-treated group compared with in the saline-treated control group."}}, "data": [{"smiles": "CCCc1c2oc(C(=O)[O-])cc(=O)c2cc2c(=O)cc(C(=O)[O-])n(CC)c12.[Na+].[Na+]", "note": "[Nedocromil Sodium, 4H-Pyrano[3,2-g]quinoline-2,8-dicarboxylic acid, 9-ethyl-6,9-dihydro-4,6-dioxo-10-propyl-, disodium salt]", "values": [{"measurement": "tumor growth", "setting": "Panc-02 tumor cells", "result": "significantly suppressed"}, {"measurement": "EC50", "setting": "human GPR35; CHO-K1 cell line stably expressing human GPR35 and β-arrestin", "result": "2980 ± 1270", "unit": "nM"}, {"measurement": "agonism of GPR 35", "setting": "human GPR35; PathHunter β-arrestin-2 interaction assay", "result": "potent full agonist"}, {"measurement": "tumor change", "setting": "cancerous tumor; 8 week mark after second topical application", "result": "no tumor was able to be felt"}, {"measurement": "tumor change", "setting": "cancerous tumor; roughly 6 weeks after second topical application", "result": "noticeably smaller"}, {"measurement": "dose dependence of ion channel block", "setting": "[1]", "result": "dose-dependent manner"}, {"measurement": "number of tumors dissolved", "setting": "[2]; after 2nd topical treatment", "result": 17, "unit": "OF THE 30 TUMORS"}, {"measurement": "tumor change", "setting": "[2]; after one topical treatment, 30 tumors", "result": "the tumors have flattened"}, {"measurement": "side effects", "setting": "[2]; all 30 tumors treated in one sitting", "result": "no side effects"}, {"measurement": "mast cell degranulation in the tumor microenvironment", "setting": "K-ras^G12Dp53^−/− tumors; compared with saline-treated control group", "result": "inhibited"}, {"measurement": "mean tumor size", "setting": "K-ras^G12Dp53^−/− tumors; end time point (day 50) after treatment, saline group 31.3", "result": 5.2, "unit": "mm^3"}, {"measurement": "tumor growth", "setting": "K-ras^G12Dp53^−/− tumors; treated mice vs. saline control at day 42 after treatment, P<0.001", "result": "significantly suppressed"}]}]}
